# In patent US20240325394A1, “SALT AND CRYSTAL FORM OF NITROGEN-CONTAINING HETEROCYCLIC DERIVATIVE, PREPARATION METHOD THEREFOR AND APPLICATION THEREOF” (SHANGHAI HANSOH BIOMEDICAL CO., LTD., priority 2020, published 2024):
# What was measured:
# [1] = Plasma protein binding rate test, human plasma; assay type: in vitro ADME; details: 37° C.
# Method: (§1) The embodiment compound was prepared into a 1 mM solution A with DMSO.
# (§2) Solution A was added to the plasma solution and prepared into a 5 μM solution B.
# (§3) • 1) 200 μL of solution B was added into the membrane. • 2) 350 μL of PBS was added to the outside of the membrane. • 3) Incubating in a 37° C. water bath for 6 hours. • 4) The samples were processed for dilution and detected by mass spectrometry.
# (§4) • instrument: Shimadzu LC-20 AD; • chromatographic column: phenomenex Gemiu® C18 (50*4.6 mm, 5 UM particle size); • mobile phase: A: Acetonitrile, B: 0.1% formic acid solution 0-0.5 min: 5% A→90% A, 2.0-2.1 min: 90% A→5% A; flow rate: 0.8 mL/min; running time: 5.0 min; injection volume: 5 μL.
# (§5) • instrument: API4000 Liquid Chromatography-Mass Spectrometry, AB, USA; • the ion source was electrospray ionization source (ESI); • the temperature of dry gas (N2) was 500° C.; • electrospray voltage was 5500V; • the detection method was positive ion detection; • the scanning mode was selective response monitoring (MRM); the scanning time was 0.1 s.
# [2] = Pharmacokinetics in MiaPaca 2 tumor-bearing mice (plasma, tumor tissue); assay type: in vivo; details: female, mouse, po; Plasma, p.o. 6 mg/kg
# Method: The pharmacokinetic behavior of the compound of the embodiment 13-1 and AMG-510 compound, administered orally at a dose of 6 mg/kg, in mice (plasma, tumor tissue and intestine) was studied using MiaPaca 2 tumor-bearing mice as test animals.
# 24 MiaPaca 2 tumor-bearing mice, females. 3 for each time point (0 h, 1 h, 2 h, 4 h, 6 h, 8 h, 16 h, 24 h). Shanghai xipuer-bikai Laboratory Animal Co., Ltd, Animal Production License No. (SCXK (Shanghai) 2018-0006.
# Embodiment compound 13-1 and compound AMG-510 were weighed and dissolved in the solution, the mixture was shaken well, and ultrasound was performed for 15 minutes to obtain a uniform suspension with a concentration of 0.6 mg/mL.
# MiaPaca 2 tumor-bearing mice were administered at a dose of 6 mg/kg in a volume of 10 mL/kg, respectively, based on body weight p.o. after fasting (animals were not administered at point 0 h).
# Before and after administration, mice were sacrificed with CO2, 0.5 mL blood was collected from the heart and placed in EDTA-2K tube, centrifuged at 4° C. […] The duodenum, ileum and colon tissues were cut with scissors, the contents were removed and cleaned twice with PBS, after absorbing water with absorbent paper, they were weighed, placed in a 2 mL centrifuge tube and stored at −80° C.
# [3] = system: NCI-H358 cells (KRAS G12C mutant); assay: Inhibition of NCI-H358 cell proliferation (CellTiter-Glo, 72 h); assay type: cell-based, human
# Method: (§6) When NCI-H358 or Mia PaCa-2 cells were cultured to the appropriate fusion level, the NCI-H358 or Mia PaCa-2 cells were collected, and the cells were adjusted to the appropriate cell concentration using a complete medium, and the cell suspension was spread in a 96-well plate, 90 μL per well, and placed in a 37° C., 5% CO2 incubator overnight; and compound solutions of different concentrations were prepared using DMSO and culture medium; and a solvent control was set, the compound solution was added to a 96-well plate, 10 μL per well, at 37° C. in a 5% CO2 incubator for 72 hours; CellTiter-Glo solution was added thereto and the mixture was mixed well by shaking, incubated for 10 min in the dark, and read by BioTek Synergy H1 microplate reader.
# (§7) The luminescence signal values were used to calculate the inhibition rate, the concentration and the inhibition rate were fitted to a nonlinear regression curve using Graphpad Prism software, then the IC50 value was obtained.
# [4] = system: Mia PaCa-2 cells (KRAS G12C mutant); assay: Inhibition of Mia PaCa-2 cell proliferation (CellTiter-Glo, 72 h); assay type: cell-based, human
# Method: as §6, §7
# [5] = system: phosphorylated ERK in Mia PaCa-2 cells; assay: Inhibition of phosphorylated ERK in Mia PaCa-2 cells (LANCE Ultra); assay type: cell-based, human; details: 2 hours treatment; read-out: Mia PaCa-2 pERK IC50
# Method: When Mia PaCa-2 cells were cultured to the appropriate fusion level, Mia PaCa-2 cells were collected, and the cell density was adjusted to 1×10^6/mL using complete culture medium, the cell suspension was spread on a 96-well plate, 50 μL per well, and placed adherent to the wall in a 37° C., 5% CO2 incubator overnight, compound solutions with different concentrations were prepared using DMSO and complete culture medium, a solvent control was set, the compound solution was added to a 96-well plate, 25 μL per well, and placed in a 37° C., 5% CO2 incubator for 2 hours of continuous culture, the supernatant was discarded from the cell culture plate, 50 μL of lysis solution was added to each well, and lysing was performed for 30 minutes by shaking at room temperature, then the mixture was centrifuged at 1000 rpm for 1 minute, 15 μL of supernatant was transferred to 384 well plate, 5 μL of detection mixture (Eu-labeled anti-ERK1/2 (T202-Y204) antibody with final concentration of 0.5 nM and ULight labeled anti-ERK1/2 antibody with final concentration of 5 nM) was added to each well, centrifuged at 1000 rpm for 1 minute and mixed uniformly, the reaction was carried out overnight at room temperature, the plate was read with BioTek Synergy H1, and the signal values was detected at 620 nm and 665 nm emission wavelengths by time-resolved fluorescence program. […]
# plasma protein [6] = assay: Plasma protein binding rate test, human plasma; assay type: in vitro ADME; details: 5 μM, 37° C., 6 hours
# Method: as §1, §2, §3, §4, §5
# plasma protein [7] = assay: Plasma protein binding rate test, rat plasma; assay type: in vitro ADME; details: 5 μM, 37° C., 6 hours
# Method: as §1, §2, §3, §4, §5
# plasma protein [8] = assay: Plasma protein binding rate test, mouse plasma; assay type: in vitro ADME; details: 5 μM, 37° C., 6 hours
# Method: as §1, §2, §3, §4, §5
# plasma protein [9] = assay: Plasma protein binding rate test, dog plasma; assay type: in vitro ADME; details: 5 μM, 37° C., 6 hours
# Method: as §1, §2, §3, §4, §5
Compound,"fraction unbound at 6 h, 5 μM [1]",MRT [2],half-life [2],IC50 [3],IC50 [4],IC50 [5],"Plasma protein binding rate, Human (plasma protein [6])","Plasma protein binding rate, Rat (plasma protein [7])","Plasma protein binding rate, Mouse (plasma protein [8])","Plasma protein binding rate, Dog (plasma protein [9])"
"C=CC(=O)N1C[C@H](C)N(c2nc(=O)n(-c3c(SC)ccnc3C(C)C)c3nc(-c4c(N)ccc(Cl)c4F)c(Cl)cc23)C[C@H]1C (atropisomer, axis not shown) [Embodiment 13-1, P-4-((2S,5R)-4-Acryloyl-2,5-dimethylpiperazin-1-yl)-7-(6-amino-3-chloro-2-fluorophenyl)-6-chloro-1-(2-isopropyl-4-(methylthio)pyridin-3-yl)pyrido[2,3-d]pyrimidin-2(1H)-one]",0.003,54 min,30 min,,,,,,,
"P-4-((2S,5R)-4-acryloyl-2,5-dimethylpiperazin-1-yl)-6-fluoro-7-(2-fluoro-6-hydroxyphenyl)-1-(2-isopropyl-4-(methylthio)pyridin-3-yl)pyrido[2,3-d]pyrimidin-2(1H)-one [Embodiment 2-1]",,,,35 nM,29 nM,38 nM,98.0,90.5,88.4,82.6
